Assay results: patent publication US6635293B2, “Finely dispersed carotenoid suspensions for use in foods and a process for their preparation” (Kemin Foods, L.C., priority 2001, dated 2003)

Key:
[1] = Optical clarity of water containing SFAE/carotenoid composition (% transmittance at 800 nm); assay type: physicochemical; conditions: liquid conc. product 20% L-1695 ester
Method: (§1) Optical clarity was examined using SFAE/carotenoid liquid compositions in potable water and a model beverage system. The SFAE/carotenoid dry composition are used in a model beverage system. Liquid SFAE/carotenoid compositions were made by slowly mixing the appropriate weight percent of SFAE into the water until dissolved (Tables 2-5). At this point, the carotenoid was mixed into the SFAE/water mixture until evenly dispersed. The dry SFAE/lutein composition was prepared by removing the water from the liquid SFAE/lutein composition using a horizontal wiped film evaporator until the total moisture was less than 1%. These SFAE/carotenoid compositions were added either to potable water or to the model beverage system. The optical clarity was measured using a Hewlett Packard UV-Visible Spectrophotometer Model 8453. The instrument was blanked with water for the water trial and control beverage for the beverage trials. A quartz cuvette having a 1 cm path length is rinsed three times with the sample and then the transmittance at 800 nm is read from the spectrophotometer.

[2] = Optical clarity of model beverage system containing SFAE/carotenoid composition (% transmittance at 800 nm); assay type: physicochemical; conditions: liquid conc. product 20% L-1695 ester
Method: as §1

[3] = Stability against ringing and settling of SFAE/carotenoid compositions in model beverage system; assay type: physicochemical; conditions: 3 mg carotenoid/8 fl. oz. serving, 20% SFAE/1% lycopene
Source text: The objective of this experiment was to determine the stability of a sucrose fatty acid ester/carotenoid suspension in aqueous compositions. For the purposes of this discussion, stability will be defined as the resistance to produce a deposit of the carotenoid around the perimeter of the container in the region of the surface of the beverage (ringing). There are several factors that may affect the stability against ringing in aqueous compositions. It is possible that an optimal level of SFAE is required to keep the carotenoid in the suspension. The hydrophilic/lipophilic balance (HLB) of the SFAE may affect the interaction of the carotenoids with the aqueous composition. Additionally, the inclusion level of the SFAE/carotenoid suspension may determine the stability against ringing. […] These factors have been examined to determine whether there are optimal levels of SFAE and carotenoids that contribute to the stability against ringing. Stability against ringing was examined using SFAE/carotenoid liquid compositions in potable water and a model beverage system. The SFAE/carotenoid dry composition was used in a model beverage system. Liquid SFAE/carotenoid compositions were made by slowly mixing the appropriate weight percent of SFAE into the water until dissolved (Table 6). At this point the carotenoid was mixed into the SFAE/water mixture until evenly dispersed. […]

[4] = system: age-related macular degeneration; conditions: consumption of lutein and zeaxanthin together; cited from earlier work
[5] = 0.5 mg carotenoid/8 oz serving, 1% carotenoid
[6] = 3.0 mg carotenoid/8 oz serving, 1% carotenoid
[7] = 0.5 mg carotenoid/8 oz serving, 5% carotenoid
[8] = 1.5 mg carotenoid/8 oz serving, 5% carotenoid
[9] = 3.0 mg carotenoid/8 oz serving, 5% carotenoid

Row | Optical Clarity [1, 5] | Optical Clarity ([1]; 1.5 mg carotenoid/8 oz serving, 1% carotenoid) | Optical Clarity [1, 6] | Optical Clarity [2, 5] | Optical Clarity [2, 6] | settling (in words) [3] | Optical Clarity [1, 7] | Optical Clarity [1, 8] | Optical Clarity [1, 9] | Optical Clarity [2, 7] | Optical Clarity [2, 9] | Compound | reduction in age-related macular degeneration [4]
1 | 97.989 % transmittance at 800 nm | 88.387 % transmittance at 800 nm | 72.401 % transmittance at 800 nm | 94.934 % transmittance at 800 nm | 50.180 % transmittance at 800 nm | considerable amount of settling | – | – | – | – | – | CC(C)=CCC/C(C)=C/C=C/C(C)=C/C=C/C(C)=C/C=C/C=C(C)/C=C/C=C(C)/C=C/C=C(\C)CCC=C(C)C [lycopene, Lycopene] | –
2 | – | – | – | – | – | – | 98.213 % transmittance at 800 nm | 95.692 % transmittance at 800 nm | 94.110 % transmittance at 800 nm | 99.102 % transmittance at 800 nm | 87.707 % transmittance at 800 nm | CC1=C(/C=C/C(C)=C/C=C/C(C)=C/C=C/C=C(C)/C=C/C=C(C)/C=C/C2=C(C)C[C@@H](O)CC2(C)C)C(C)(C)C[C@H](O)C1 [zeaxanthin, Zeaxanthin] | 57%
3 | – | – | – | – | – | – | 104.73 % transmittance at 800 nm | 101.01 % transmittance at 800 nm | 93.735 % transmittance at 800 nm | 97.609 % transmittance at 800 nm | 83.017 % transmittance at 800 nm | CC1=C[C@H](O)CC(C)(C)[C@H]1/C=C/C(C)=C/C=C/C(C)=C/C=C/C=C(C)/C=C/C=C(C)/C=C/C1=C(C)C[C@@H](O)CC1(C)C [lutein, Lutein] | 57%
4 | – | – | – | – | – | – | 96.759 % transmittance at 800 nm | 94.275 % transmittance at 800 nm | 87.407 % transmittance at 800 nm | 99.314 % transmittance at 800 nm | 89.643 % transmittance at 800 nm | CC1=C(/C=C/C(C)=C/C=C/C(C)=C/C=C/C=C(C)/C=C/C=C(C)/C=C/C2=C(C)CCCC2(C)C)C(C)(C)CCC1 [β-carotene, β-Carotene] | –
